Laboratory results published in patent US20070254907A1, “COMPOSITIONS AND METHODS FOR CONTROLLING INFESTATION” (HATCHTECH PTY LTD, priority 2003, published 2007).
Entries after “also recorded” stand apart in the source; their conditions may differ. Where two headings read alike, the source gives them in different places.

Experiments:
[1] = system: lice eggs; experiment: whole plant or invertebrate; assay type: in vivo; conditions: for H (number of eggs successfully hatched) / Ph (number of eggs partly hatched): per replicate, concentration not given
[2] = system: Plutella xylostella eggs; experiment: whole plant or invertebrate; assay type: in vivo
Description: The ovicidal efficacy of 2-acetyl-1-tetralone was also tested against Plutella eggs.

[3] = system: Plutella xylostella eggs; experiment: Reversal of inhibition of Plutella egg hatching by added FeSO4; assay type: in vivo
Description: (§1) Within 24 hours of collection the following experimental design was chosen. Batches of eggs were exposed to 10 mM 6,6′-dimethyl-2,2′-dipyridyl for 2 seconds while additional batches of eggs were exposed to the solvent only (Methanol) for 2 seconds. All batches of eggs were allowed to air dry for 20 minutes at room temperature. The eggs were then given a 2 second exposure to FeSO4 at either 10, 5 or 1 mM, air dried and put in the incubator at 24° C. and allowed to hatch over the next 6 days. In addition, a positive control of 10 mM 6,6′-dimethyl-2,2′-dipyridyl was set up in which eggs were exposed to this compound for 2 seconds, air dried and placed in the incubator.
as §1, with “10 mM 5,5′-dimethyl-2,2′-dipyridyl for 2” for “10 mM 6,6′-dimethyl-2,2′-dipyridyl for 2”, “FeSO4 at 10, 5” for “FeSO4 at either 10, 5”, “put in an incubator at” for “put in the incubator at”, “of 10 mM, 5,5′-dimethyl-2,2′-dipyridyl was set” for “of 10 mM 6,6′-dimethyl-2,2′-dipyridyl was set”

[4] = system: B. ovis eggs; experiment: Egg hatching in Bovicola ovis; assay type: in vivo; conditions: 10 mM; for Number hatched in different replicates: 10 eggs per replicate; for % Inhibition: in comparison to the controls; for Number unhatched: per replicate
Description: B. ovis eggs were collected from the wool of sheep that were infested with this parasite. The eggs were collected using forceps and with the aid of a dissecting microscope and placed in 24 well tissue culture plates in duplicate lots of 10 eggs per replicate. The eggs were then exposed to either methanol alone (control) or the test compounds for either 10 minutes or 1 minute before being removed from the wells and placed into individual glass vials containing a diet at the base of the tube. The tubes were placed in plastic containers containing a salt solution (to keep humidity constant at 68%) and the containers maintained at a temperature 32° C. The eggs were monitored for hatching over the following 12 days and % hatch inhibition determined in comparison to the controls.

[5] = system: Lice (L) and Plutella (P) eggs; conditions: Lice (L) and Plutella (P)
[6] = system: Helicoverpa armigera eggs; experiment: Egg hatching of Helicoverpa armigera
[7] = 10 and 1 mM, listed as 6,6′dimethyl-2,2′dipyridyl
[8] = Table 9, 0.001 mM, dipped 2-10 s, day 6 post laying
[9] = Table 9, 0.01 mM, dipped 2-10 s, day 6 post laying
[10] = Table 9, 0.1 mM, dipped 2-10 s, day 6 post laying
[11] = Table 9, 1 mM, dipped 2-10 s, day 6 post laying
[12] = Table 9, 10 mM, dipped 2-10 s, day 6 post laying
[13] = Table 10, eggs laid on cloth, 0.01 mM
[14] = Table 10, eggs laid on cloth, 0.1 mM
[15] = Table 10, eggs laid on cloth, 1 mM
[16] = Table 10, eggs laid on cloth, 10 mM
[17] = Table 11, eggs laid on parafilm, 0.01 mM
[18] = Table 11, eggs laid on parafilm, 0.1 mM
[19] = Table 11, eggs laid on parafilm, 1 mM
[20] = Table 11, eggs laid on parafilm, 10 mM
[21] = 10 mM chelator followed by 2 second exposure to 1 mM FeSO4
[22] = 10 mM chelator followed by 2 second exposure to 5 mM FeSO4
[23] = 10 mM chelator followed by 2 second exposure to 10 mM FeSO4
[24] = 10 mM chelator followed by 2 second exposure to MEOH
[25] = 10 mM chelator, 2 s, (+ve) control without second exposure

Compound: Cc1cccc(-c2cccc(C)n2)n1 [6,6′-dimethyl-2,2′-dipyridyl]
- lice egg hatching ([1]; all time points examined (24-120 hr post egg laying)): completely inhibited
- H (number of eggs successfully hatched) ([1]; treated 24 hr post egg laying): 0
- Ph (number of eggs partly hatched) ([1]; treated 24 hr post egg laying): 0
- H (number of eggs successfully hatched) ([1]; treated 48 hr post egg laying): 0
- Ph (number of eggs partly hatched) ([1]; treated 48 hr post egg laying): 0
- H (number of eggs successfully hatched) ([1]; treated 72 hr post egg laying): 0
- Ph (number of eggs partly hatched) ([1]; treated 72 hr post egg laying): 0
- H (number of eggs successfully hatched) ([1]; treated 96 hr post egg laying): 0
- Ph (number of eggs partly hatched) ([1]; treated 96 hr post egg laying): 0
- H (number of eggs successfully hatched) ([1]; treated 120 hr post egg laying): 0
- Ph (number of eggs partly hatched) ([1]; treated 120 hr post egg laying): 0
- effect on egg hatching of Plutella xylostella (words) ([2]; 0.1 and 0.01 mM): no observable effects on egg hatching
- effect on egg hatching of Plutella xylostella (words) ([2]; 10 and 1 mM, listed as 6,6′-dimethyl-2,2′dipyridyl): effective at inhibiting egg hatching
- effect on egg hatching of Plutella xylostella (words) [2, 7]: strong ovicidal effects
- Ovicidal activity % ([2]; Plutella (P), 1 mM): 100.00%
- Activity class 0 = inactive 1 = low 2 = med 3 = high ([2]; Plutella (P), listed as of 1 mM): 2 (a pLD50 value between 3 and 4 is considered moderately active (Class 2))
- Number hatched [2, 8]: 11
- Number unhatched [2, 8]: 6
- % Inhibition ([2]; Table 9, 0.001 mM, relative to control (100% MeOH)): 0%
- Number hatched [2, 9]: 13
- Number unhatched [2, 9]: 7
- % Inhibition ([2]; Table 9, 0.01 mM, relative to control (100% MeOH)): 0%
- Number hatched [2, 10]: 23
- Number unhatched [2, 10]: 29
- % Inhibition ([2]; Table 9, 0.1 mM, relative to control (100% MeOH)): 0%
- Number hatched [2, 11]: 0
- Number unhatched [2, 11]: 26
- % Inhibition ([2]; Table 9, 1 mM, relative to control (100% MeOH)): 100%
- Number hatched [2, 12]: 0
- Number unhatched [2, 12]: 79
- % Inhibition ([2]; Table 9, 10 mM, relative to control (100% MeOH)): 100%
- Number hatched [2, 13]: 23
- Number unhatched [2, 13]: 4
- % Inhibition ([2]; Table 10, eggs laid on cloth, 0.01 mM, relative to controls): 12%
- Number hatched [2, 14]: 49
- Number unhatched [2, 14]: 0
- % Inhibition ([2]; Table 10, eggs laid on cloth, 0.1 mM, relative to controls): 0%
- Number hatched [2, 15]: 0
- Number unhatched [2, 15]: 23
- % Inhibition ([2]; Table 10, eggs laid on cloth, 1 mM, relative to controls): 100%
- Number hatched [2, 16]: 0
- Number unhatched [2, 16]: 53
- % Inhibition ([2]; Table 10, eggs laid on cloth, 10 mM, relative to controls): 100%
- Number hatched [2, 17]: 92
- Number unhatched [2, 17]: 1
- % Inhibition ([2]; Table 11, eggs laid on parafilm, 0.01 mM, relative to controls): 0%
- Number hatched [2, 18]: 65
- Number unhatched [2, 18]: 11
- % Inhibition ([2]; Table 11, eggs laid on parafilm, 0.1 mM, relative to controls): 7%
- Number hatched [2, 19]: 0
- Number unhatched [2, 19]: 63
- % Inhibition ([2]; Table 11, eggs laid on parafilm, 1 mM, relative to controls): 100%
- Number hatched [2, 20]: 0
- Number unhatched [2, 20]: 106
- % Inhibition ([2]; Table 11, eggs laid on parafilm, 10 mM, relative to controls): 100%
- Number hatched [3, 21]: 33
- Number unhatched [3, 21]: 1
- % Inhibition ([3]; 10 mM chelator followed by 2 second exposure to 1 mM FeSO4, relative to FeSO4 controls): 3%
- Number hatched [3, 22]: 25
- Number unhatched [3, 22]: 0
- % Inhibition ([3]; 10 mM chelator followed by 2 second exposure to 5 mM FeSO4, relative to FeSO4 controls): 0%
- Number hatched [3, 23]: 12
- Number unhatched [3, 23]: 19
- % Inhibition ([3]; 10 mM chelator followed by 2 second exposure to 10 mM FeSO4, relative to FeSO4 controls): 38%
- % Inhibition [3, 24]: 90%
- Number hatched [3, 24]: 3
- Number unhatched [3, 24]: 28
- % Inhibition [3, 25]: 100%
- Number hatched [3, 25]: 0
- Number unhatched [3, 25]: 44
- effect of added Fe in FeSO4 on the chelator's inhibition of egg hatching ([3]; 10 mM chelator, then FeSO4 10, 5 or 1 mM): able to reverse the effects
- inhibition of egg hatching after MeOH alone post exposure ([3]; 10 mM chelator, then MeOH): significant degree of inhibition of egg hatching
- egg hatching in the louse ([4]; 10 or 1 minute exposure): completely inhibited
- Number hatched in different replicates ([4]; 1 minute exposure): Rep 1. 0; also recorded: Rep 2. 0
- % Inhibition ([4]; 1 minute exposure): 100%
- Number unhatched ([4]; 1 minute exposure): 10
- Number hatched in different replicates ([4]; 10 minute exposure): Rep 1. 0; also recorded: Rep 2. 0
- % Inhibition ([4]; 10 minute exposure): 100%
- Number unhatched ([4]; 10 minute exposure): 10
- Ovicidal activity % ([5]; 0.1 mM): 0.00%
- Ovicidal activity % ([5]; 10 mM): 100.00%
- Activity class 0 = inactive 1 = low 2 = med 3 = high ([5]; listed as of 0.1 mM): 2 (a pLD50 value between 3 and 4 is considered moderately active (Class 2))
- Activity class 0 = inactive 1 = low 2 = med 3 = high ([5]; listed as of 10 mM): 2 (a pLD50 value between 3 and 4 is considered moderately active (Class 2))
- effect on egg hatching of Helicoverpa armigera (words) ([6]; 0.1 mM): no inhibition of egg hatching was observed
- effect on egg hatching of Helicoverpa armigera (words) ([6]; 10 and 1 mM): significantly inhibit the egg hatching
- effect on egg hatching of Helicoverpa armigera (words) [6, 7]: significantly inhibit egg hatching
- % Inhibition ([6]; Table 12, 0.001 mM, relative to control (100% MeOH)): 0%
- % Inhibition ([6]; Table 12, 0.01 mM, relative to control (100% MeOH)): 0%
- % Inhibition ([6]; Table 12, 0.1 mM, relative to control (100% MeOH)): 0%
- Number hatched ([6]; Table 12, 1 mM): 4
- Number unhatched ([6]; Table 12, 1 mM): 140
- % Inhibition ([6]; Table 12, 1 mM, relative to control (100% MeOH)): 97%
- Number hatched ([6]; Table 12, 10 mM): 7
- Number unhatched ([6]; Table 12, 10 mM): 98
- % Inhibition ([6]; Table 12, 10 mM, relative to control (100% MeOH)): 94%
- Number hatched ([6]; Table 13, 0.1 mM): 70
- Number unhatched ([6]; Table 13, 0.1 mM): 0
- % Inhibition ([6]; Table 13, 0.1 mM, relative to the control (100% MeOH)): 0%
- Number hatched ([6]; Table 13, 1 mM): 2
- Number unhatched ([6]; Table 13, 1 mM): 61
- % Inhibition ([6]; Table 13, 1 mM, relative to the control (100% MeOH)): 97%
- Number hatched ([6]; Table 13, 10 mM): 3
- Number unhatched ([6]; Table 13, 10 mM): 48
- % Inhibition ([6]; Table 13, 10 mM, relative to the control (100% MeOH)): 94%
- effect on egg hatching of Helicoverpa armigera (words) ([6]; concentrations below 1 mM): No inhibition was recorded
